# Values quoted from earlier work, collected in PMC9076486 (RSC Advances, 2019).
# System: superoxide anions
# Conditions: pH 7.4; for IC50: read-out: IC50 (SOD activity)
Molecule,k cat (SOD activity),IC50 [nM]
"[Cu+2].[O-][Cl+3]([O-])([O-])[O-].[O-][Cl+3]([O-])([O-])[O-] [Cu(ClO4)2, copper(II) perchlorate]",2.7 10^6 M^−1 s^−1,1100
"CuZn–SOD: native copper–zinc superoxide dismutase enzyme, value from ref. 42",430 10^6 M^−1 s^−1,10
